From patent US20220119772A1, “COMPOSITIONS AND METHODS FOR TREATMENT OF A MALABSORPTIVE DISORDER” (CHILDREN'S HOSPITAL MEDICAL CENTER, priority 2019, published 2022)
Ends that are not written are not given here.

How the values were obtained:
[1] = tested on: human small intestinal tissue (transplanted HIOs); experiment: Ussing chamber electrophysiology, peptides/chemicals added ex vivo, transplanted HIO tissue; assay type: cell-based; details: for initial Isc response to luminal glucose: then 25 mM D-glucose
Procedure: (§1) 28-35 days after spheroid generation, HIOs were removed from Matrigel and transplanted under the kidney capsule of immune deficient NOD.Cg-Prkdc^scidI12rg^tmIWjl/SzJ (NSG) mice as previously described^16. NSG mice were maintained on Bactrim chow for a minimum of 2 weeks prior to transplantation and thereafter for the duration of the experiment (8-14 weeks).
(§2) Electrophysiological experiments were conducted as described^28 with minor modifications. Mouse jejunum and transplanted HIOs were dissected and immediately placed in ice-cold Krebs-Ringer solution. Tissues were opened to create a flat epithelial surface. Because seromuscular stripping is associated with release of cyclooxygenases and prostaglandins^28, and prostaglandins can stimulate L-cells to release GLP1, GLP2 and PYY^36, Applicant performed the Ussing chamber experiments in intestinal tissue with an intact muscular layer. Tissues were mounted into sliders (0.031 cm^2 area slider, P2307, Physiological Instruments) and placed in an Ussing chamber with reservoirs containing 5 mL buffer (115 mM NaCl, 1.2 mM CaCl2, 1.2 mM MgCl2, 25 mM NaHCO3, 2.4 mM K2HPO4 and 0.4 mM KH2PO4). The mucosal and serosal tissue surfaces were bathed in the same solution, with the exception of 10 mM glucose in the serosal buffer and 10 mM mannitol in the luminal buffer. Mucosal and serosal reservoir solutions were gassed with 95% O2 and 5% CO2 to pH 7.4 and maintained at 37° C. by a circulating water bath behind the reservoir chambers. Electrophysiology parameters were recorded as previously described^37. Tissue was allowed to equilibrate to a basal steady-state for a minimum of 30 minutes before the addition of chemicals or peptides. 10 nM tetrodotoxin (Tocris) was added to the serosal buffer bathing mouse intestine to inhibit voltage-gated neuronal firing and allowed to incubate for a minimum of 10 minutes before basal Isc recording. D-glucose and Gly-Sar were added to the luminal side of the chamber once the VIP-induced Isc had stabilized at a maximum value.

mouse jejunum = experiment: Ussing chamber electrophysiology, peptides/chemicals added ex vivo, mouse jejunum; assay type: cell-based; details: for initial Isc response to luminal glucose: then 25 mM D-glucose
Procedure: as §2

HIO-derived enteroids [2] = experiment: Enteroid swelling assay (VIP-induced, CFTR-mediated ion and water efflux); assay type: cell-based, human; details: for VIP-induced enteroid swelling: 10 nM VIP, 6 h, 10 nM PYY or 20 μM CFTR-172 added 24 h before imaging
Procedure: Enteroids were plated in 10 μL Matrigel on an 8-chamber glass bottom slide (Ibidi) and maintained as described above. 3-5 days post-plating, the slide was mounted on an inverted confocal microscope (Nikon) fitted with an incubation chamber set to 37° C. and 5% CO2. Media was changed to include 10 nM VIP (Tocris). In some experiments, the media was changed 24 hours prior to imaging to include 20 μM CFTR (inh)-172 (Millipore Sigma) or 10 nM PYY (Phoenix Pharmaceuticals). Images were acquired every 5 minutes at 4× magnification. After 6 hours, some HIOEs swelled to the point of bursting; therefore, Applicant used images acquired at time 0 and at 6 hours for quantification. The area of 10 representative enteroids per well was quantified using NIS Elements software at both time points. The outline of individual enteroids was traced manually and the area calculated by NIS Elements. Fold change at 6 hours over baseline was reported. Data include a minimum of three independent experiments per condition.

HIO-derived enteroids [3] = experiment: Intracellular pH assay (pHrodo, flow cytometry) in enteroids; assay type: cell-based, human
Procedure: (§3) Enteroids were differentiated for 5-7 days in the presence of vehicle (water), 10 nM VIP (Tocris) or 10 nM PYY (Phoenix Pharmaceuticals) and 10 nM VIP. On the final day, enteroids were removed from Matrigel and enzymatically dissociated into single-cell suspension using 0.25% Trypsin-EDTA. Cell suspensions were counted and equal cell numbers of dissociated HIOEs were incubated in pHrodo Green AM Intracellular pH indicator (ThermoFisher Scientific) according to manufacturer's directions for 30 minutes at 37 C., washed with 1X PBS, and analyzed by flow cytometry.
(§4) After mechanical and enzymatic dissociation, tissues were filtered through a 40 μm cell strainer to obtain a single-cell suspension. In all experiments, samples were labeled with either CDH1-mRuby2 or Anti-EpCam-APC (BD Biosciences) to distinguish epithelial cells and incubated with SYTOX Blue dead cell stain (Life Technologies) or 7-AAD (BD Pharmingen). Forward scatter and side scatter were used to discriminate doublets and cellular debris. A minimum of 50,000 events per sample was recorded using an LSR Fortessa flow cytometer (BD Biosciences) and data was analyzed using FACSDiva software (BD Biosciences).

SLC9A3 (NHE3) expression = experiment: qPCR of SLC9A3 (NHE3) expression in enteroids; assay type: cell-based, human
Procedure: RNA was extracted using Nucleospin RNA extraction kit (Macharey-Nagel) and reverse transcribed into cDNA using Superscript VILO (Invitrogen) according to manufacturer's instruction. qPCR primers were designed using NCBI PrimerBlast. Primer sequences are listed in the table below. qPCR was performed using Quantitect SYBR® Green PCR kit (QIAGEN) and a QuantStudio 3 Flex Real-Time PCR System (Applied Biosystems). Relative expression was determined using the […] method and normalizing to PPIA (cyclophilin A). Samples from at least three independent passages were used for quantification.
as §3

[4] = tested on: EEC-deficient HIOs transplanted in NSG mice; experiment: PYY treatment of NSG mice hosting EEC-deficient HIOs, Ussing chamber analysis of HIO tissue; assay type: in vivo, human
Procedure: as §1
Electrophysiological experiments were conducted as described^28 with minor modifications. Mouse jejunum and transplanted HIOs were dissected and immediately placed in ice-cold Krebs-Ringer solution. Tissues were opened to create a flat epithelial surface. Because seromuscular stripping is associated with release of cyclooxygenases and prostaglandins^28, and prostaglandins can stimulate L-cells to release GLP1, GLP2 and PYY^36, Applicant performed the Ussing chamber experiments in intestinal tissue with an intact muscular layer. […] Electrophysiology parameters were recorded as previously described^37. […]
NSG mice hosting HIOs were treated with 25 μg PYY (Phoenix Pharmaceuticals) diluted in water to 100 μL by intraperitoneal injection. Mice were treated daily for a minimum of 10 days after HIOs had been maturing for 8 weeks, then dissected and analyzed.

[5] = tested on: VillinCre;Neurog3flox/flox (EEC-deficient) mice; experiment: PYY rescue of EEC-deficient mice (daily i.p. injection), with ex vivo analysis of jejunum; assay type: in vivo, mouse
Procedure: as §2, §4
VillinCre;Neurog3^flox/flox mice^4 and their littermates were weighed, genotyped and visually examined for liquid feces daily beginning at postnatal day 10. Applicant established a diarrhea score, with 3 representing wet, yellow feces that smeared the perianal fur, and 0 representing normal, dry, brown, well-defined pellets. Mutant mice which suffered from diarrhea score 3 were included in the rescue experiment. 10 μg PYY (Phoenix Pharmaceuticals) was diluted in water and added to 20 μl DPP4 inhibitor (Millipore) to a final volume of 100 μl per mouse. Mice were injected intraperitoneally with this cocktail within 2 hours of the onset of the dark cycle (7 pm) daily until analysis at postnatal day 28-35. Mice were given access to solid chow on the floor of the cage beginning at postnatal day 10 and weaned at postnatal day 21.

Compound: NC(=O)NCc1ccc(CNC(=O)[C@@H](CCCN=C(N)N)NC(=O)C(c2ccccc2)c2ccccc2)cc1 [BIB03304, N-[(1R)-1-[[[[4-[[(Amirtocarbortyl)amino]methyl]phenyl]methyl]amino]carbonyl]-4-[(aminoiminomethyl)amino]butyl]-α-phenyl-benzeneacetamide ditrifluoroacetate]
- initial Isc response to luminal glucose ([1]; wild-type HIO tissue treated with VIP, NPY1R antagonist BIB03304): caused an abnormal initial response to glucose that mimicked EEC-deficient tissues
- response (ΔIsc) to VIP ([1]; wild-type human tissue, 10 nM VIP, PYY receptor inhibited with BIB03304): elevated response to VIP compared to untreated wild-type
- basal Isc ([1]; wild-type human tissue, 300 nM BIB03304 added): reproducibly increased the basal Isc
- Isc response to luminal dipeptide Gly-Sar ([1]; wild-type human tissue, 10 minutes pre-treatment with 300 nM BIB03304): did not alter the Isc response to Gly-Sar
- initial Isc response to luminal glucose (mouse jejunum; wild-type mouse tissue treated with VIP, NPY1R antagonist BIB03304): caused an abnormal initial response to glucose that mimicked EEC-deficient tissues
- response (ΔIsc) to VIP (mouse jejunum; wild-type mouse tissue, 10 nM VIP, PYY receptor inhibited with BIB03304): elevated response to VIP compared to untreated wild-type
- basal Isc (mouse jejunum; wild-type mouse tissue, 300 nM BIB03304 added): reproducibly increased the basal Isc
- Isc response to luminal dipeptide Gly-Sar (mouse jejunum; wild-type mouse tissue, 10 minutes pre-treatment with 300 nM BIB03304): did not alter the Isc response to Gly-Sar

Compound: PYY: Peptide YY, PYY(1-36) from Phoenix Pharmaceuticals; EEC-derived gut peptide acting on NPY1R; co-injected with DPP4 inhibitor in mice
- basal Isc ([1]; EEC-deficient (mutant) human tissue, 10 nM PYY added): lowered the basal Isc
- initial Isc response to luminal glucose ([1]; EEC-deficient HIO tissue treated with VIP, pre-treatment with 10 nM PYY): returned to wild type levels
- magnitude of response (ΔIsc) to VIP ([1]; EEC-deficient mutant HIOs, 10 nM VIP, exogenous PYY added): reduced the magnitude of response (ΔIsc) to VIP
- VIP-induced enteroid swelling (HIO-derived enteroids [2]; EEC-deficient enteroids): significant inhibition of VIP-induced swelling
- VIP-induced enteroid swelling (HIO-derived enteroids [2]; wild type enteroids): significant inhibition of VIP-induced swelling
- intracellular pH (HIO-derived enteroids [3]; EEC-deficient enteroids, 10 nM VIP with concurrent 10 nM PYY for 5-7 days): normalized the pH in EEC-deficient enteroids
- SLC9A3 expression (SLC9A3 (NHE3) expression; EEC-deficient enteroids, PYY concurrently with VIP, 5-7 days): restored SLC9A3 expression to not significantly different from untreated
- response to luminal glucose ([4]; EEC-deficient HIOs, host animals injected with 25 μg PYY i.p. daily for 10 days): restores a normal glucose response
- Isc response to luminal Gly-Sar ([4]; EEC-deficient transplanted HIOs, host animals treated long-term with PYY, compared to untreated mutant): improved Isc response to luminal Gly-Sar
- survival of EEC-deficient (mutant) mice ([5]; 10 μg PYY(1-36) i.p. once daily from P10, co-injected with DPP4 inhibitor): up to 88%
- Isc response to luminal Gly-Sar ([5]; EEC-deficient mice, long-term PYY treatment, compared to untreated mutant): improved Isc response to luminal Gly-Sar
- response to luminal glucose ([5]; EEC-deficient mouse intestine after in vivo PYY treatment): restores a normal glucose response
- MFI of pHrodo intensity (intracellular pH, proton transport) ([5]; EEC-deficient vs EEC-rich regions of mosaic jejunum after PYY treatment): normalized
- electrogenic response to VIP ([5]; jejunum of mutant mice treated with PYY in vivo): restored to wild type levels
- basal (resting) Isc of jejunum ([5]; mutant jejunum in Ussing chamber after in vivo injections of PYY): significantly decreased
- diarrhea score (average) ([5]; within 48 hours of PYY treatment, score 3 = watery diarrhea, 0 = well-defined pellets, 10 μg PYY i.p. daily with DPP4 inhibitor): 1
- basal Isc (mouse jejunum; EEC-deficient (mutant) mouse tissue, 10 nM PYY added): lowered the basal Isc
- initial Isc response to luminal glucose (mouse jejunum; EEC-deficient mouse tissue treated with VIP, pre-treatment with 10 nM PYY): returned to wild type levels
- Isc response to luminal dipeptide Gly-Sar (mouse jejunum; EEC-deficient mouse tissue, 10 minutes pre-treatment with 10 nM PYY, VIP present): did not alter the Isc response to Gly-Sar
- magnitude of response (ΔIsc) to VIP (mouse jejunum; EEC-deficient mutant mice, 10 nM VIP, exogenous PYY added): reduced the magnitude of response (ΔIsc) to VIP

Compound: O=C(O)c1ccc(/C=C2\SC(=S)N(c3cccc(C(F)(F)F)c3)C2=O)cc1 [CFTR-172]
- electrogenic response to VIP ([1]; wild-type and EEC-deficient human tissue, 20 μM CFTR-172): blocked
- VIP-induced enteroid swelling (HIO-derived enteroids [2]; EEC-deficient enteroids): blocked
- VIP-induced enteroid swelling (HIO-derived enteroids [2]; wild type enteroids): blocked
- electrogenic response to VIP (mouse jejunum; wild type and mutant jejunum pre-treated with 20 μM CFTR-172): blocked

Compound: VIP: vasoactive intestinal peptide (Tocris), ENS-derived peptide signalling via VIPR1 to raise cAMP (HSDAVFTDNYTRLRKQMAVKKYLNSILN-NH2; ends and bridges not checked; UniProt P01282 125-152, looked up)
- ion and water transport as measured by organoid swelling (HIO-derived enteroids [2]; 10 nM VIP added to enteroids): induced ion and water transport
- intracellular pH (HIO-derived enteroids [3]; EEC-deficient enteroids differentiated with 10 nM VIP for 5-7 days): developed an H^+ imbalance with an acidic cytoplasm
- SLC9A3 expression (SLC9A3 (NHE3) expression; EEC-deficient enteroids, 5-7 days of exposure to VIP): reduced
- SLC9A3 expression (SLC9A3 (NHE3) expression; wild type enteroids, 5-7 days of exposure to VIP): reduced
